In brackets after ≈: the same amount, converted by molar mass. Several values for one entry are separate records, joined by “and”; a condition that tells them apart may be missing. Equal values may be shown once. Read-outs that look alike come from different tables or passages of the source.
Legend:
[1] = target: EcOPPS (E. coli octaprenyl diphosphate synthase) (Escherichia coli, UniProt P0AD57); assay: OPPS enzyme inhibition assay; format: biochemical; details: IC50 against EcOPPS
S. aureus = S. aureus growth inhibition assay; format: cell-based, Staphylococcus aureus; details: for Sa ED50: S. aureus growth inhibition
[2] = target: SaHepPPS (S. aureus heptaprenyl diphosphate synthase) (Staphylococcus aureus, UniProt Q2FYG6); assay: HepPPS enzyme inhibition assay; format: biochemical; details: IC50 against SaHepPPS
E. faecium = details: cited from earlier work
E. faecalis = details: cited from earlier work
P. aeruginosa FPPS = details: read-out: activity against P. aeruginosa FPPS; cited from earlier work
B. subtilis [3] = assay: B. subtilis serum binding assay; format: cell-based, Bacillus subtilis; details: for effect of serum on B. subtilis growth inhibition: 4% or 10% fetal bovine serum
B. subtilis [4] = details: cited from earlier work
HEK293 cells = assay: HEK293 cell growth inhibition assay; format: cell-based, human; details: for HEK293 toxicity (ED50): 96 hours incubation; for HEK 293: HEK293 cell growth inhibition ED50, 24 hr incubation
Mycobacterium smegmatis = assay: M. smegmatis growth inhibition assay; format: cell-based
B. subtilis [5] = assay: B. subtilis growth inhibition assay; format: cell-based, Bacillus subtilis
EcUPPS = EcUPPS (Escherichia coli, UniProt P60472); assay: UPPS enzyme inhibition assay; format: biochemical, E. coli
Sequence of EcUPPS (P60472 whole entry): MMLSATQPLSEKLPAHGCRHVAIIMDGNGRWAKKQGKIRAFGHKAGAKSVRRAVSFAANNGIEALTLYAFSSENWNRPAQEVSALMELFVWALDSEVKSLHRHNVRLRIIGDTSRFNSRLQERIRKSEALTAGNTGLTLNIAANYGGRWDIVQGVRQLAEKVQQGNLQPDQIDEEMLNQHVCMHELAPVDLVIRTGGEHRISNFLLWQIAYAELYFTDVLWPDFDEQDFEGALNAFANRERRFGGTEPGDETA

B. anthracis Sterne = format: cell-based, Bacillus anthracis; details: B. anthracis Sterne growth inhibition
[6] = target: T1, HsFPPS (human farnesyl diphosphate synthase) (Homo sapiens, UniProt P14324); assay: FPPS enzyme inhibition assay; format: biochemical
T1 sequence (P14324 1-419): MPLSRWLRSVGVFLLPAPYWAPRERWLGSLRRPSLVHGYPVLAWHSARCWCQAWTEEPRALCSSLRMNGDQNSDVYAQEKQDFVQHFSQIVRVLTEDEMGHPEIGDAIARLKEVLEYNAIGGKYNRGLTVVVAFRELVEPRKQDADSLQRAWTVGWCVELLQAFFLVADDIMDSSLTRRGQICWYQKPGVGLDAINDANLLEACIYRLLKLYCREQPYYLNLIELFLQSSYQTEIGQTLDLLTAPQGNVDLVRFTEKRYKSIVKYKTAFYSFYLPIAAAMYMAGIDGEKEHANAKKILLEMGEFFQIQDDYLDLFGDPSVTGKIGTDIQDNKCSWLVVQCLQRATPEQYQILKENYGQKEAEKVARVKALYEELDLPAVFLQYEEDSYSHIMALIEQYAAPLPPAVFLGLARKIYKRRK

B. subtilis [7] = assay: B. subtilis cell growth inhibition rescue assays; format: cell-based, Bacillus subtilis
[8] = HEK293 cell growth inhibition assay; format: cell-based, human; details: human, HEK293 cells

Sequence of EcOPPS (E. coli octaprenyl diphosphate synthase) (P0AD57 whole entry): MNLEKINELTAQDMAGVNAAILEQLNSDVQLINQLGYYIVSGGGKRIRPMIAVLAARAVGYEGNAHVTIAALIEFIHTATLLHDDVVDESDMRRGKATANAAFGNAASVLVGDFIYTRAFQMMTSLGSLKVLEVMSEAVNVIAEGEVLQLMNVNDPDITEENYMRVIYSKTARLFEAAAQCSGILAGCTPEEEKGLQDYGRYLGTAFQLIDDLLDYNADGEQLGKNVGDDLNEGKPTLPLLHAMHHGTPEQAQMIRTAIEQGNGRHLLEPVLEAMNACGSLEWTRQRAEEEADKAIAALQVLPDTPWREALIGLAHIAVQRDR

SMILES	IC50 [1] [µM]	Sa ED50 (S. aureus; value in parentheses) [µM]	HEK293 toxicity (ED50) (HEK293 cells)	Ms ED50 (Mycobacterium smegmatis; 48 hours) [µg/mL]	Ms ED50 (Mycobacterium smegmatis; value in parentheses) [µM]	Bs ED50 (B. subtilis [5]; value in parentheses) [µM]	Ba ED50 (B. anthracis Sterne) [µg/mL]	Ba ED50 (B. anthracis Sterne; value in parentheses) [µM]	Sa ED50 (S. aureus) [µg/mL]	effect of serum on B. subtilis growth inhibition (B. subtilis [3])	HEK 293 (HEK293 cells) [µg/mL]	Bs ED50 (B. subtilis [5]; 12 hours) [µg/mL]	also measured
CCCCCCCCCCOc1ccc[n+](CC(P(=O)([O-])O)P(=O)(O)O)c1 (stereo not shown) [Compound 6]	~0.006	–	–	–	–	–	–	–	–	–	–	–	–
O=P(O)(O)C(O)(Cn1ccnc1)P(=O)(O)O [Compound 24, zoledronate]	< 1	–	–	–	–	–	–	–	–	–	–	–	–
O=P(O)(O)C(O)(Cc1cccc(-c2cccc3c2oc2ccccc23)c1)P(=O)(O)O [Compound 69]	~330	19	–	–	–	–	–	–	–	–	–	–	IC50 [2]: 1 to 2 µM
CCCCCCCCCCCCCCOc1cccc(O)c1C(=O)O [Compound 70]	–	–	–	–	–	–	–	–	–	–	–	–	MIC E. faecium cell growth (E. faecium): 4 µg/mL (≈ 11.4 µM); IC50 (S. aureus; Staphylococcus aureus, read-out: IC50 for S. aureus cell growth inhibition): 19 µM; IC50 [2]: 1 to 2 µM; MIC E. faecalis cell growth (E. faecalis): 4 µg/mL (≈ 11.4 µM)
O=P([O-])(O)C(Cn1cc[n+](CCCc2ccc(F)c(F)c2)c1)P(=O)(O)O (stereo not shown) [Compound 72, reference compound]	–	–	13 µM	–	–	–	–	–	–	–	–	–	IC50 (P. aeruginosa FPPS): 0.1 to 0.2 µM; increase in ED50 with 10% serum (B. subtilis [3]; B. subtilis, 10% serum): 50%; activity against B. subtilis (B. subtilis [4]): > 100 µg/mL
CC(C)CCCC(C)CCOc1ccc[n+](CC(P(=O)([O-])O)P(=O)(O)O)c1 (stereo not shown) [Compound 74, Hydrogen(2-(3-((3,7-dimethyloctyl)oxy)pyridin-1-ium-1-yl)-1-phosphonoethyl) phosphonate]	–	33	76 µM and ~ 70 µM	5.9	14	2.4	2.3	5.4	14	little effect	262	–	inhibition of UPPS (EcUPPS): no inhibition; IC50 [6]: 0.2 µM and ~0.2 µM; HEK293 toxicity (HEK293 cells; after 24 hrs): ~ 0.5 mM; increase in ED50 for B. subtilis growth inhibition, rescue by HMBPP (B. subtilis [7]; 50 µM HMBPP): ~ 2 x; increase in ED50 for B. subtilis growth inhibition, rescue by MK-4 (B. subtilis [7]; 50 µM MK-4): ~ 5 x
CCCCCCCCCCCc1ccc[n+](CC(P(=O)([O-])O)P(=O)(O)O)c1 (stereo not shown) [Compound 76, Hydrogen (1-phosphono-2-(3-undecylpyridin-1-ium-1-yl)ethyl)phosphonate]	–	30	7.3 µM	6.1	14	4.8	0.6	1.4	13	no effect	96	2.1	–
CC(C)CCCC(C)CCCc1ccc[n+](CC(P(=O)([O-])O)P(=O)(O)O)c1 (stereo not shown) [Compound 77, Hydrogen(2-(3-(4,8-dimethylnonyl)pyridin-1-ium-1-yl)-1-phosphonoethyl) phosphonate]	–	31	140 µM	5.9	14	5.2	2.1	5.0	13	no effect	194	2.2	–
CC(C)CCCC(C)CCCc1cc[n+](CC(P(=O)([O-])O)P(=O)(O)O)cc1 (stereo not shown) [Compound 80, Hydrogen(2-(4-(4,8-dimethylnonyl)pyridin-1-ium-1-yl)-1-phosphonoethyl) phosphonate]	–	50	–	7.2	17	7.4	2.2	5.2	21	–	295	3.1	IC50 [8]: ~1000 µM; HEK 293 (HEK293 cells; value in parentheses): 700 µM
CC(C)CCCC(C)CCOc1cc[n+](CC(P(=O)([O-])O)P(=O)(O)O)cc1 (stereo not shown) [Compound 84, Hydrogen (2-(4-((3,7-dimethyloctyl)oxy)pyridin-1-ium-1-yl)-1-phosphonoethyl) phosphonate]	–	66	–	150	350	14	2.5	5.9	–	–	420	–	IC50 [8]: ~1000 µM; HEK 293 (HEK293 cells; value in parentheses): 1000 µM
